Laboratory results taken from patent publication US4918012A (Kyowa Hakko Kogyo Co., Ltd., priority 1986, dated 1990).

How the values were obtained:
[1] = test system: L-carnitinamide hydrolase; experiment: Inhibitors of L-carnitinamide hydrolase (metal ions, EDTA, 2-mercaptoethanol); format: biochemical, Pseudomonas sp.
Description: The determination of the activity of carnitinamide hydrolase can be carried out by measuring the amount of carnitine generated by, for example, Pearson's method (D. J. Pearson et al., Method in Enzymology, Vol. 14, 612 (1969)). When there is no inhibitory substances present, the determination of the activity of the enzyme can also be carried out by measuring the amount of ammonia generated by the reaction.

strain CA28-50A = experiment: Effect of compound added to growth medium on carnitinamide hydrolase formation (Example 9); format: cell-based, Pseudomonas sp. CA28-50A; conditions: 26° C.; for Conversion Rate of L-carnitinamide into L-carnitine: cells reacted with 10% DL-carnitinamide, 96 hours; for Growth (optical density at 660, 1.00 cm, 20 times dilution): strain CA28-50A, 3 days
Description: In a medium consisting of 1% glucose, 0.5% peptone, 0.75% K2 HPO4, 0.25% KH2 PO4, 0.01% MgSO4.7H2 O, 0.001% FeSO4.7H2 O and one of the compounds shown in Table 6 below and the balance water (pH 7.2) was inoculated the strain CA28-50A and shake cultured at 26° C. for 3 days. Cells collected from the culture broth by centrifugation were suspended in a reaction solution containing 10% DL-carnitinamide in the same density as that in the medium for growth culture, and the resulting suspension was allowed to stand at 26° C. for 96 hours for the reaction.

SMILES	Inhibition of the enzyme ([1]; concentration of 1 mM)	Inhibition of the enzyme ([1]; at 10 mM)	also measured
[Mg+2] [Mg]	no inhibition	–	–
[Ag+] [Ag ion]	slight inhibition	remarkable inhibition	–
O=C(O)CN(CCN(CC(=O)O)CC(=O)O)CC(=O)O [EDTA]	do not show inhibition	do not show inhibition	–
[Ni+2] [Ni]	no inhibition	slight inhibition	–
C[N+](C)(C)CC(O)CC(=O)[O-] (racemic) [DL-Carnitine]	–	–	Conversion Rate of L-carnitinamide into L-carnitine (strain CA28-50A; compound 0.5% in growth medium): 90.0%; Growth (optical density at 660, 1.00 cm, 20 times dilution) (strain CA28-50A; compound 0.5% in growth medium): 0.27
OCCS [2-mercaptoethanol]	do not show inhibition	do not show inhibition	–
C[N+](C)(C)CC(O)CC(N)=O (racemic) [DL-Carnitinamide]	–	–	Conversion Rate of L-carnitinamide into L-carnitine (strain CA28-50A; compound 0.5% in growth medium): 88.7%; Growth (optical density at 660, 1.00 cm, 20 times dilution) (strain CA28-50A; compound 0.5% in growth medium): 0.27
[Co+2] [Co]	no inhibition	–	–
[Zn+2] [Zn]	no inhibition	–	–
Cl.N [NH4 Cl]	–	–	Conversion Rate of L-carnitinamide into L-carnitine (strain CA28-50A; compound 0.1% in growth medium): 2.9%; Growth (optical density at 660, 1.00 cm, 20 times dilution) (strain CA28-50A; compound 0.1% in growth medium): 0.23
[Mn+2] [Mn]	no inhibition	–	–
C[N+](C)(C)CCCC(=O)[O-] [γ-Butyrobetaine]	–	–	Conversion Rate of L-carnitinamide into L-carnitine (strain CA28-50A; compound 0.5% in growth medium): 12.3%; Growth (optical density at 660, 1.00 cm, 20 times dilution) (strain CA28-50A; compound 0.5% in growth medium): 0.26
